Where a name gives a salt, the structure may show the parent alone. Read-outs that look alike come from different tables or passages of the source.
How the values were obtained:
TYK2 JH2 = target: T1, TYK2 JH2 (Homo sapiens, UniProt P29597); assay: TYK2 JH2 binding assay (KINOMEscan KdELECT competitive binding); conditions: TYK2 JH2 domain
T1 construct: purchased DiscoverX (KINOMEscan KdELECT service); host or cells: E. coli BL21-derived (T7 phage display) or HEK-293
Summary of the method: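 Competition binding, KdELECT format. Kinase (phage-tagged, E. coli BL21-derived host; or HEK-293, DNA-tagged) + ligand-coated streptavidin beads + cpd, 1 h RT, final DMSO 0.9%. Wash, elute 30 min with 0.5 μM non-biotinylated ligand; qPCR readout. Kd: 11-pt, 3-fold series.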

[1] = system: JAK1/TYK2 pSTAT5 (Tyr694/699) in THP-1 cell line; assay: IFNa-stimulated JAK1/TYK2 pSTAT5 (Tyr694/699) inhibition cellular assay, AlphaLISA; assay type: cell-based; conditions: Homo sapiens, THP-1 cells, AlphaLISA (Assay B)
Summary of the method: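 The readout is AlphaLISA signal at 615 nm for phospho-STAT5 in THP-1 lysates after IFNa stimulation (added at 100 ng/mL, 30 min, 37 °C). Cells had compound for 1 h beforehand across eight 6-fold concentrations up to 10000 nM final. IC50s are 4PL fits with bottom and Hill slope constrained.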

[2] = KINOMEscan KdELECT (Assay A), read-out: Biochemical TYK2_JH2_Kd
[3] = IFNa-stimulated, read-out: Cellular THP1_IFNa-pSTATS_IC50
[4] = DiscoverX KINOMEscan KdELECT (Assay A), read-out: Biochemical TYK2_DiscoverX_JH2_BND_Kd
[5] = IFNa-stimulated, read-out: Cellular_THP1_IFNa-pSTATS_TYK2
[6] = KINOMEscan KdELECT (Assay A), read-out: Biochemical TYK2_DiscoverX_JH2_BND_Kd
[7] = IFNa-stimulated pSTAT5 (Tyr694/699), read-out: Cellular_THP1_IFNa-pSTATS_TYK2

T1 sequence (P29597 589-875 limits assumed): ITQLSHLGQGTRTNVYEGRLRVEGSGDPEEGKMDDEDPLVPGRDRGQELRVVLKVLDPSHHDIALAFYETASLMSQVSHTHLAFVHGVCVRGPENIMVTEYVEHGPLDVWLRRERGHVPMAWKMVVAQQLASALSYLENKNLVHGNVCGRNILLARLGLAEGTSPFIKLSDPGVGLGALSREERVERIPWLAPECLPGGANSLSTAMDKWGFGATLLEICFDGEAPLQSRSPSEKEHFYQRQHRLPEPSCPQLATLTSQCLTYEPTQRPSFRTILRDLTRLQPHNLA

Row | Compound | Kd (TYK2 JH2; [4]) | IC50 [1, 5] | Kd (TYK2 JH2; [6]) | further results
1 | CNc1ncc(-c2cc3ccccc3o2)c2cc(NC(=O)C3CC3)ncc12 [Example 114, N-(5-(benzofuran-2-yl)-8-(methylamino)-2,7-naphthyridin-3-yl)cyclopropanecarboxamide] |  |  |  | Kd (TYK2 JH2; [2]): ≤ 100 nM; IC50 [1, 3]: ≤ 500 nM
2 | CNc1ncc(-c2nc3cc(C4CCN([C@@]5(C)COC[C@H]5O)CC4)ccc3o2)c2cc(NC(=O)C3CC3)ncc12 (racemic) [Example 260, N-(5-(5-(1-(4-hydroxy-3-methyltetrahydrofuran-3-yl)piperidin-4-yl)benzo[d]oxazol-2-yl)-8-(methylamino)-2,7-naphthyridin-3-yl)cyclopropanecarboxamide] | ≤ 100 nM | ≤ 500 nM |  | 
3 | CNc1ncc(-c2ccccc2)c2cc(NC(=O)C3CC3F)ncc12 (stereo not shown) [Example 103, 2-fluoro-N-(8-(methylamino)-5-phenyl-2,7-naphthyridin-3-yl)cyclopropane-1-carboxamide] |  |  |  | Kd (TYK2 JH2; [2]): ≤ 100 nM; IC50 [1, 3]: > 500 nM
4 | CNc1ncc(-c2nc3cc(C(F)(F)F)ccc3o2)c2cc(NC(=O)C3CC3)ncc12 [Example 217, N-(8-(methylamino)-5-(5-(trifluoromethyl)benzo[d]oxazol-2-yl)-2,7-naphthyridin-3-yl)cyclopropanecarboxamide] | ≤ 100 nM | ≤ 500 nM |  | 
5 | CNc1ncc(C2CCOC2)c2cc(NC(=O)C3CC3)ncc12 (stereo not shown) [Example 76, N-(8-(methylamino)-5-(tetrahydrofuran-3-yl)-2,7-naphthyridin-3-yl)cyclopropanecarboxamide] |  |  |  | Kd (TYK2 JH2; [2]): ≤ 100 nM; IC50 [1, 3]: > 500 nM
6 | CNc1ncc(-c2nc3cccc(CCC#N)c3o2)c2cc(NC(=O)C3CC3)ncc12 [Example 270, N-(5-(7-(2-cyanoethyl)benzo[d]oxazol-2-yl)-8-(methylamino)-2,7-naphthyridin-3-yl)cyclopropanecarboxamide] | ≤ 100 nM | ≤ 500 nM |  | 
7 | CNc1ncc(-c2nc3c(N4CCC4COC)cccc3o2)c2cc(NC(=O)C3CC3)ncc12 (stereo not shown) [Example 220, N-(5-(4-(2-(methoxymethyl)azetidin-1-yl)benzo[d]oxazol-2-yl)-8-(methylamino)-2,7-naphthyridin-3-yl)cyclopropanecarboxamide] | ≤ 100 nM | > 500 nM |  | 
8 | [2H]C([2H])([2H])Nc1ncc(-c2nc3cc(N4C5CCC4COC5)ccc3o2)c2cc(NC(=O)C3CC3)ncc12 [Example 453, N-(5-(5-(3-oxa-8-azabicyclo[3.2.1]octan-8-yl)benzo[d]oxazol-2-yl)-8-((methyl-d3)amino)-2,7-naphthyridin-3-yl)cyclopropanecarboxamide] | ≤ 100 nM | ≤ 500 nM |  | 
9 | CNc1ncc(-c2nc3cc(C4=CCOCC4)ccc3o2)c2cc(NC(=O)C3CC3)ncc12 [Example 342, N-(5-(5-(3,6-dihydro-2H-pyran-4-yl)benzo[d]oxazol-2-yl)-8-(methylamino)-2,7-naphthyridin-3-yl)cyclopropanecarboxamide] | ≤ 100 nM | ≤ 500 nM |  | 
10 | CNc1ncc(-c2nc3ccc(N4CCOCC4)cc3o2)c2cc(NC(=O)C3CC3)ncc12 [Example 355, N-(8-(methylamino)-5-(6-morpholinobenzo[d]oxazol-2-yl)-2,7-naphthyridin-3-yl)cyclopropanecarboxamide] | ≤ 100 nM | ≤ 500 nM |  | 
11 | CNc1ncc(-c2nc3cc(OCC45CCCN4CCC5)ccc3o2)c2cc(NC(=O)C3CC3)ncc12 [Example 349, N-(8-(methylamino)-5-(5-((tetrahydro-1H-pyrrolizin-7a(5H)-yl)methoxy)benzo[d]oxazol-2-yl)-2,7-naphthyridin-3-yl)cyclopropanecarboxamide] | ≤ 100 nM | ≤ 500 nM |  | 
12 | CNc1ncc(-c2ccn3nc(N4CCC4)nc3c2)c2cc(NC(=O)C3CC3)ncc12 [Example 156, N-(5-(2-(azetidin-1-yl)-[1,2,4]triazolo[1,5-a]pyridin-7-yl)-8-(methylamino)-2,7-naphthyridin-3-yl)cyclopropanecarboxamide] |  |  |  | Kd (TYK2 JH2; [2]): ≤ 100 nM; IC50 [1, 3]: > 500 nM
13 | CNc1ncc(-c2ccc(OC3CC3)cc2)c2cc(NC(=O)C3CC3)ncc12 [Example 117, N-(5-(4-cyclopropoxyphenyl)-8-(methylamino)-2,7-naphthyridin-3-yl)cyclopropanecarboxamide] |  |  |  | Kd (TYK2 JH2; [2]): ≤ 100 nM; IC50 [1, 3]: > 500 nM

Now from value to compound, other results behind:

Row | Kd (TYK2 JH2; [4]) | IC50 [1, 5] | Kd (TYK2 JH2; [6]) | Compound | further results
14 | ≤ 100 nM | > 500 nM |  | CNc1ncc(-c2nc3cc(OC)ccc3o2)c2cc(NC(=O)[C@H]3C[C@H]3C(F)(F)F)ncc12 (single isomer, unassigned) [Example 398] | 
15 | ≤ 100 nM | ≤ 500 nM |  | CNc1ncc(-c2nc3ccc(N4CCOCC4)cn3n2)c2cc(NC(=O)[C@H]3CC34CC4)ncc12 (single isomer, unassigned) [Example 588, formate] | 
16 |  | ≤ 500 nM | ≤ 100 nM | CNc1ncc(C#Cc2ccc(OC)cn2)c2cc(NC(=O)[C@H]3C[C@H]3C)ncc12 [Example 742, (1S,2R)—N-(5-((5-methoxypyridin-2-yl)ethynyl)-8-(methylamino)-2,7-naphthyridin-3-yl)-2-methylcyclopropane-1-carboxamide] | 
17 |  | ≤ 500 nM | ≤ 100 nM | CNc1ncc(C#Cc2ncccc2C2CC2)c2cc(NC(=O)C3CC3)ncc12 [Example 955, N-(5-((3-cyclopropylpyridin-2-yl)ethynyl)-8-(methylamino)-2,7-naphthyridin-3-yl)cyclopropanecarboxamide] | 
18 |  | ≤ 500 nM | ≤ 100 nM | CNc1ncc(C#Cc2ccc(N3CCOC3=O)cc2)c2cc(NC(=O)C3CC3)ncc12 [Example 675, N-(8-(methylamino)-5-((4-(2-oxooxazolidin-3-yl)phenyl)ethynyl)-2,7-naphthyridin-3-yl)cyclopropanecarboxamide] | 
19 |  |  | ≤ 100 nM | CNc1ncc(-c2nc3ccc(N4CCOC(CCCO)C4)cn3n2)c2cc(NC(=O)C3CC3)ncc12 (stereo not shown) [Example 1053] | IC50 [1, 7]: ≤ 500 nM
20 | ≤ 100 nM | ≤ 500 nM |  | [2H]C([2H])([2H])Nc1ncc(-c2nc3ccccc3o2)c2cc(NC(C)=O)ncc12 [Example 431, N-(5-(benzo[d]oxazol-2-yl)-8-((methyl-d3)amino)-2,7-naphthyridin-3-yl)acetamide] | 
21 |  |  | ≤ 100 nM | CNc1ncc(-c2nc3ccc(N4CCO[C@@H](C(C)(C)OC)C4)cn3n2)c2cc(NC(=O)C3CC3)ncc12 [Example 1032] | IC50 [1, 7]: ≤ 500 nM
22 | ≤ 100 nM | ≤ 500 nM |  | [2H]C([2H])([2H])Nc1ncc(-c2nc3ccc(OC)cn3n2)c2cc(NC(=O)[C@@H]3C[C@@H]3F)ncc12 [Example 569, (1S,2S)-2-fluoro-N-(5-(6-methoxy-[1,2,4]triazolo[1,5-a]pyridin-2-yl)-8-((methyl-d3)amino)-2,7-naphthyridin-3-yl)cyclopropane-1-carboxamide] | 
23 |  | ≤ 500 nM | ≤ 100 nM | CNc1ncc(C#Cc2ccc(OC[C@@H]3COCCO3)cc2)c2cc(NC(=O)C3CC3)ncc12 [Example 768, (S)—N-(5-((4-((1,4-dioxan-2-yl)methoxy)phenyl)ethynyl)-8-(methylamino)-2,7-naphthyridin-3-yl)cyclopropanecarboxamide] | 
24 |  | ≤ 500 nM | ≤ 100 nM | CNc1ncc(C#Cc2ccnc(F)c2)c2cc(NC(=O)C3CC3)ncc12 [Example 979, N-[5-[2-(2-fluoro-4-pyridyl)ethynyl]-8-(methylamino)-2,7-naphthyridin-3-yl]cyclopropanecarboxamide] | 
25 |  | ≤ 500 nM | ≤ 100 nM | CCNc1ncc(C#Cc2ccc3nc4n(c3c2)CCOC4)c2cc(NC(=O)C3CC3)ncc12 [Example 750, N-(5-((3,4-dihydro-1H-benzo[4,5]imidazo[2,1-c][1,4]oxazin-7-yl)ethynyl)-8-(ethylamino)-2,7-naphthyridin-3-yl)cyclopropanecarboxamide] | 
26 |  | ≤ 500 nM | ≤ 100 nM | CNc1ncc(C#Cc2ccc3nnn(C(C)C)c3c2)c2cc(NC(=O)C3CC3)ncc12 [Example 681, N-(5-((1-isopropyl-1H-benzo[d][1,2,3]triazol-6-yl)ethynyl)-8-(methylimino)-2,7-naphthyridin-3-yl)cyclopropanecarboxamide] | 
27 |  | ≤ 500 nM | ≤ 100 nM | CNc1ncc(C#CC23CC(OC)(C2)C3)c2cc(NC(=O)C3CC3)ncc12 [Example 958, N-(5-((3-methoxybicyclo[1.1.1]pentan-1-yl)ethynyl)-8-(methylamino)-2,7-naphthyridin-3-yl)cyclopropanecarboxamide] | 
28 |  | ≤ 500 nM | ≤ 100 nM | CNc1ncc(C#Cc2cnn(C)n2)c2cc(NC(=O)C3CC3)ncc12 [Example 653, N-(5-((2-methyl-2H-1,2,3-triazol-4-yl)ethynyl)-8-(methylamino)-2,7-naphthyridin-3-yl)cyclopropanecarboxamide] | 
29 |  | ≤ 500 nM | ≤ 100 nM | CNc1ncc(-c2nc3cc(N4CCO[C@@H](C)C4)ccc3o2)c2cc(NC(=O)C3CC3)nnc12 [Example 890, (S)—N-(8-(methylamino)-5-(5-(2-methylmorpholino)benzo[d]oxazol-2-yl)pyrido[3,4-c]pyridazin-3-yl)cyclopropanecarboxamide] | 

Source: patent US20240025906A1 (NEURON23, INC., priority 2022, published 2024)
